Assay results reported in patent publication US9199917B2, “N-substituted benzenepropanamide or benzenepropenamide derivatives for use in the treatment of pain and inflammation” (Novaremed Limited, priority 2008, dated 2015).

System: Balb/c mice
Assay: Hot-Plate Test of Balb/c mice vs. imipramine, i.p. & p.o. (Example 2)
Assay type: in vivo
Details: 5 mg/kg i.p. at t=0, group Average
Protocol: 14-week old male Balb/c mice (non-naive) were divided into four groups of seven mice per group and treated at t=0 as detailed in Table 3 below:
Compound 18 stock comprises 9.4 mg Compound 18, 0.2 mL DMSO and 0.8 mL saline.
As in Example 1 above, the response latencies of the mice in the respective groups were tested using a hot-plate at t=−60 mins., 0 mins., 60 mins., 120 mins., 180 mins., 240 mins., 300 mins. and 360 mins.

## CN(C)CCCN1c2ccccc2CCc2ccccc21 [Imipramine, imipramine]
Tested at t=0 mins.
  hot-plate response latency: 13.7 s
Tested at t=60 mins.
  hot-plate response latency: 14.9 s
Tested at t=120 mins.
  hot-plate response latency: 14.6 s
Tested at t=240 mins.
  hot-plate response latency: 22.9 s
Tested at t=300 mins.
  hot-plate response latency: 23.1 s
